Source: paper PMC5301252, “A new approach to quantification of mAb aggregates using peptide affinity probes” (Scientific Reports, 2017)

What was measured:
[1] = system: control non-aggregated NISTmAb; test: Phage ELISA, binding to control NISTmAb; conditions: phage clone displaying the peptide; 2 hours, room temperature; absorbance 450 nm; three analytical replicates
Method: (§1) In the second step, a sample of the cross-linked NISTmAb was used as bait to screen a Ph.D.−12 phage display peptide library. The bait represents a mixture of monomer and cross-linked aggregated NISTmAb; this was also the only occasion when cross-linked sample was used. Phage display panning was performed in a subtractive manner. The library was initially depleted with control non-aggregated NISTmAb using three iterative cycles. The unbound phage was then screened on cross-linked NISTmAb aggregates, again using three iterative cycles of phage binding, elution, and amplification. After these rounds of panning, the single phage plaques were randomly picked up and amplified, and phage DNA was submitted for sequencing. In parallel, the ability to bind NISTmAb aggregates was evaluated using phage enzyme-linked immunosorbent assay (ELISA) for all selected phage clones. […] Clones #1 and #4 show respectively 9-fold and 7-fold better binding toward aggregated NISTmAb, compared to their binding toward control non-aggregated NISTmAb. […]
(§2) To assess the binding ability of the selected phages toward NISTmAb aggregates, 1 × 10^10 pfu of P02-C06 phage was incubated with 50 μg of NISTmAb aggregates at room temperature for 2 hours. […] Tetramethybezidine substrate reagent (eBioscience, San Diego, CA) was subsequently added and absorbance was read at 450 nm.

[2] = system: NISTmAb aggregates generated by agitation; test: Phage ELISA, binding to aggregated NISTmAb versus control NISTmAb; conditions: phage clone displaying the peptide, 2 hours, room temperature
Method: as §1, §2

affinity toward non-aggregated NISTmAb, compared to other clones [1]: lowest | fold better binding toward aggregated NISTmAb compared to control non-aggregated NISTmAb ([2]; 1 × 10^10 pfu, HRP anti-M13, absorbance 450 nm, three analytical replicates): 7 -fold
Sequence: GNNPLHVHHDKRGGG [P02-C04]
binding preference ([2]; aggregated vs control NISTmAb, absorbance 450 nm): preferential binding to NISTmAb aggregates
